# The source made the active and inactive calls. No rule for the calls is given here.
# Key:
# Test in all cases: competitive ABPP of Abhd10 versus anti-targets – biochemical, fluorescence, gel-based, mouse proteome, selectivity assay for PME-1 inhibitor project, late-stage follow-up (AID 588807)
# [1] = biological target: Prolyl endopeptidase (Mus musculus) (UniProt Q9QUR6); settings: PREP, anti-target, stronger effect = higher value
# [2] = biological target: Monoacylglycerol lipase ABHD6 (Mus musculus) (UniProt Q8R2Y0); settings: anti-target, stronger effect = higher value
# Monoacylglycerol lipase ABHD6 (Mus musculus), sequence (Q8R2Y0 whole entry, looked up): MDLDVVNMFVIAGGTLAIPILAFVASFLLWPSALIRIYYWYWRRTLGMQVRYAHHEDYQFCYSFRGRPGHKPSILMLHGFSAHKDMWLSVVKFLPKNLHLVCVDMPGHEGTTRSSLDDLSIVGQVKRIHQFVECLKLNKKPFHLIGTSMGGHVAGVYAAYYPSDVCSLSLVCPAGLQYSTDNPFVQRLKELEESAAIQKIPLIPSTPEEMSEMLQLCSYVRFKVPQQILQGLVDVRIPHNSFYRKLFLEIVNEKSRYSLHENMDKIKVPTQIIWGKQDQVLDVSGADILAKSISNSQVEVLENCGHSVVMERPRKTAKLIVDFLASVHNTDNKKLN
# APEH = settings: anti-target, stronger effect = higher value
# Magl = settings: anti-target, stronger effect = higher value
# [3] = biological target: Palmitoyl-protein thioesterase ABHD10, mitochondrial (Mus musculus) (UniProt Q6PE15); settings: stronger effect = higher value
# Palmitoyl-protein thioesterase ABHD10, mitochondrial (Mus musculus), sequence (Q6PE15 whole entry, looked up): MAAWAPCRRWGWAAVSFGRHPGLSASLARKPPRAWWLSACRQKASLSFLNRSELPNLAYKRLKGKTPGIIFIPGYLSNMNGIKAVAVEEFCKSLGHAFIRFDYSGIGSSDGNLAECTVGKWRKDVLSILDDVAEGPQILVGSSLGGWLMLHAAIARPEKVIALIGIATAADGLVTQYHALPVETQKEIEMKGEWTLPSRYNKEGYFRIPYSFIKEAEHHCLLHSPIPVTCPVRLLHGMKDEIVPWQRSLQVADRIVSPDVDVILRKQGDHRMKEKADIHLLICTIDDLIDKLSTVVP
# Kiaa1363 = settings: anti-target, at 10 µM, stronger effect = higher value
# Prolyl endopeptidase (Mus musculus), sequence (Q9QUR6 whole entry, looked up): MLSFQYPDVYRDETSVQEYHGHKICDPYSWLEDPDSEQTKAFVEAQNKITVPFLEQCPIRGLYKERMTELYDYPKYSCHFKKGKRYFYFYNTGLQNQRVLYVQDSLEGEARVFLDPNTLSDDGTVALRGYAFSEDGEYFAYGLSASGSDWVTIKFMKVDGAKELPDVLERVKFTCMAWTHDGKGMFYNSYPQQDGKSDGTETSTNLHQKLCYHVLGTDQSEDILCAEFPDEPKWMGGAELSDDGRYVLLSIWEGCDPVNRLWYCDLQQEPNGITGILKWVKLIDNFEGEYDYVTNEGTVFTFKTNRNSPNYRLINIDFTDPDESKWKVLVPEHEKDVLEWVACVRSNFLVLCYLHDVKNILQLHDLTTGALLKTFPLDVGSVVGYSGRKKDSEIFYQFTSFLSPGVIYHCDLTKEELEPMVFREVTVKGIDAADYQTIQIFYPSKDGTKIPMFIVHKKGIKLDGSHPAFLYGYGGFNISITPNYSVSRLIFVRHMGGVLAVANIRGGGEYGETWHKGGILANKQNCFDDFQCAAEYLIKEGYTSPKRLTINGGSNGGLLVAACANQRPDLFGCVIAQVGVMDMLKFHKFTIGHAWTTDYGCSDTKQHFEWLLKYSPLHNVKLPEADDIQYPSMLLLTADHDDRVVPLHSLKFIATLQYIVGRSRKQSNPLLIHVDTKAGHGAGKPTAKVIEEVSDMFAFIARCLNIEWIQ
Structure (SMILES),inhibition ([1]; at 10 µM),"inhibition ([1]; inhibition, at 1 µM) [%]",inhibition ([2]; at 10 µM),"inhibition ([2]; inhibition, at 1 µM) [%]",inhibition (APEH; at 10 µM),inhibition (Magl; at 10 µM),inhibition ([3]; at 10 µM),"inhibition ([3]; inhibition, at 0.1 µM) [%]","inhibition ([3]; inhibition, at 1 µM) [%]",inhibition (Kiaa1363),"inhibition ([1]; inhibition, at 0.1 µM) [%]","inhibition (APEH; inhibition, at 1 µM) [%]","inhibition (APEH; inhibition, at 0.1 µM) [%]","inhibition (Magl; inhibition, at 0.1 µM) [%]","inhibition ([2]; inhibition, at 0.1 µM) [%]"
CC[C@]1(c2cccc(C)c2)C(=O)N(C(=O)OC(C)C)N1C(=O)OC(C)C,0% (inactive),–,10% (inactive),–,0% (inactive),0% (inactive),85% (inactive),30,30,0% (inactive),–,–,–,–,–
CC[C@@]1(c2cccc(C)c2)C(=O)N(C(=O)OCc2ccccc2)N1C(=O)OCc1ccccc1,90% (inactive),–,35% (inactive),10,0% (inactive),0% (inactive),95% (inactive),20,65,75% (inactive),–,–,–,–,–
CC[C@@]1(c2ccc(Cl)cc2)C(=O)N(C(=O)OC)N1C(=O)OC,50% (inactive),–,50% (inactive),–,45% (inactive),45% (inactive),100%,60,100,25% (inactive),–,–,–,–,–
CC[C@@]1(c2ccc(OC)cc2)C(=O)N(C(=O)OC)N1C(=O)OC,40% (inactive),–,10% (inactive),–,95% (inactive),10% (inactive),100% (inactive),–,70,0% (inactive),–,95,–,–,–
CC[C@@]1(c2ccccc2)C(=O)N(C(=O)OC(C)C)N1C(=O)OC(C)C,70% (inactive),10,65% (inactive),–,85% (inactive),0% (inactive),100%,70,90,0% (inactive),–,10,10,–,–
CC[C@@]1(c2ccccc2)C(=O)N(C(=O)OC)N1C(=O)OC,0% (inactive),–,0% (inactive),–,0% (inactive),0% (inactive),10% (inactive),–,–,0% (inactive),–,–,–,–,–
CC[C@@]1(c2ccc(Cl)c(Cl)c2)C(=O)N(C(=O)OC)N1C(=O)OC,25% (inactive),–,0% (inactive),–,55% (inactive),10% (inactive),90% (inactive),20,70,0% (inactive),–,–,–,–,–
COC(=O)N1C(=O)[C@](c2ccccc2)(C2CCCC2)N1C(=O)OC,0% (inactive),–,0% (inactive),–,85% (inactive),0% (inactive),0% (inactive),–,–,0% (inactive),–,–,–,–,–
CCOC(=O)N1C(=O)[C@@](CC)(c2ccccc2)N1C(=O)OCC,90% (inactive),20,65% (inactive),15,55% (inactive),0% (inactive),100%,75,100,0% (inactive),–,–,–,–,–
CCC[C@@]1(c2cccc(C)c2)C(=O)N(C(=O)OC)N1C(=O)OC,0% (inactive),–,0% (inactive),–,0% (inactive),0% (inactive),10% (inactive),–,–,0% (inactive),–,–,–,–,–
CC[C@@]1(c2ccc(C)cc2)C(=O)N(C(=O)OC(C)C)N1C(=O)OC(C)C,75% (inactive),30,50% (inactive),–,15% (inactive),0% (inactive),95%,90,90,0% (inactive),–,–,–,–,–

# Other lines, results leading:
inhibition ([1]; at 10 µM),"inhibition ([1]; inhibition, at 1 µM) [%]",inhibition ([2]; at 10 µM),"inhibition ([2]; inhibition, at 1 µM) [%]",inhibition (APEH; at 10 µM),inhibition (Magl; at 10 µM),inhibition ([3]; at 10 µM),"inhibition ([3]; inhibition, at 0.1 µM) [%]","inhibition ([3]; inhibition, at 1 µM) [%]",inhibition (Kiaa1363),"inhibition ([1]; inhibition, at 0.1 µM) [%]","inhibition (APEH; inhibition, at 1 µM) [%]","inhibition (APEH; inhibition, at 0.1 µM) [%]","inhibition (Magl; inhibition, at 0.1 µM) [%]","inhibition ([2]; inhibition, at 0.1 µM) [%]",Structure (SMILES)
55% (inactive),20,70% (inactive),20,75% (inactive),0% (inactive),100% (inactive),30,100,0% (inactive),–,–,–,–,–,CC[C@@]1(c2cccc(C)c2)C(=O)N(C(=O)OC(C)C)N1C(=O)OC(C)C
0% (inactive),–,0% (inactive),–,45% (inactive),0% (inactive),100%,60,80,0% (inactive),–,–,–,–,–,CCOC(=O)N1C(=O)[C@@](C)(c2cccc(C)c2)N1C(=O)OCC
70% (inactive),35,75% (inactive),–,20% (inactive),0% (inactive),100% (inactive),20,95,0% (inactive),20,–,–,–,–,CC[C@@]1(c2cccc(C)c2)C(=O)N(C(=O)OC)N1C(=O)OC(C)C
0% (inactive),–,0% (inactive),–,0% (inactive),0% (inactive),90% (inactive),–,65,0% (inactive),–,–,–,–,–,CC[C@@]1(c2cccc(OC)c2)C(=O)N(C(=O)OC)N1C(=O)OC
70% (inactive),–,40% (inactive),–,55% (inactive),10% (inactive),90% (inactive),20,15,25% (inactive),20,–,–,10,–,CC[C@@]1(c2ccccc2C)C(=O)N(C(=O)OC)N1C(=O)OC
90% (inactive),–,65% (inactive),–,90% (inactive),10% (inactive),95% (inactive),45,90,20% (inactive),–,–,–,–,–,CC[C@@]1(c2cccc(Cl)c2)C(=O)N(C(=O)OC)N1C(=O)OC
30% (inactive),10,0% (inactive),–,0% (inactive),0% (inactive),60% (inactive),10,25,0% (inactive),–,–,–,–,–,CC[C@@]1(c2cccc(C)c2)C(=O)N(C(=O)OC(C)C)N1C(=O)OC
0% (inactive),–,0% (inactive),–,0% (inactive),0% (inactive),15% (inactive),–,–,0% (inactive),–,–,–,–,–,Cc1cccc([C@]2(C)C(=O)N(C(=O)OCc3ccccc3)N2C(=O)OCc2ccccc2)c1
65% (inactive),25,85% (inactive),25,0% (inactive),80% (inactive),95%,95,95,25% (inactive),–,–,–,–,10,CCCOC(=O)N1C(=O)[C@@](CC)(c2ccc(C)cc2)N1C(=O)OCCC
100% (inactive),45,65% (inactive),–,70% (inactive),45% (inactive),100%,75,100,25% (inactive),20,–,–,–,–,CCOC(=O)N1C(=O)[C@@](CC)(c2cccc(C)c2)N1C(=O)OCC
85% (inactive),20,50% (inactive),–,50% (inactive),45% (inactive),100% (inactive),35,100,35% (inactive),–,–,–,–,–,CC[C@@]1(c2cccc(C)c2)C(=O)N(C(=O)OC)N1C(=O)OC
65% (inactive),20,45% (inactive),–,55% (inactive),20% (inactive),100% (inactive),10,95,35% (inactive),–,–,–,–,–,C=CCOC(=O)N1C(=O)[C@@](CC)(c2cccc(C)c2)N1C(=O)OC
65% (inactive),–,55% (inactive),–,0% (inactive),60% (inactive),100%,60,95,25% (inactive),–,–,–,–,–,CCOC(=O)N1C(=O)[C@@](CC)(c2ccc(C)cc2)N1C(=O)OCC
70% (inactive),–,50% (inactive),–,75% (inactive),10% (inactive),90% (inactive),10,75,25% (inactive),–,–,–,–,–,C=CCOC(=O)N1N(C(=O)OC)C(=O)[C@@]1(CC)c1cccc(C)c1
0% (inactive),–,0% (inactive),–,0% (inactive),0% (inactive),85% (inactive),–,20,0% (inactive),–,–,–,–,–,CC[C@]1(c2cccc(C)c2)C(=O)N(C(=O)OC)N1C(=O)OC

# — PubChem BioAssay AID588807 (The Scripps Research Institute Molecular Screening Center, 2011)
